Assay results as given in patent US6355799B1, “Substituted benzene compounds, process for their preparation, and herbicidal and defoliant compositions containing them” (ISK Americas Incorporated, priority 1997, dated 2002).

Experiments:
Type in all cases: in vivo
[1] = test system: redroot pigweed (Amaranthus retroflexus, AMARE); experiment: Pre-emerge test, greenhouse herbicide activity screening; conditions: rating scale 0-100, 14 days after application
Method in brief: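 Herbicidal damage is scored 0 (none) to 100 (complete plant death) two weeks after a simulated field spray. Rates span 15–1000 g ai/ha, delivered in acetone at 187 l/ha. For post-emergence treatments, plants have 2–3 leaves and the spray carries 0.25% v/v non-ionic surfactant.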

[2] = test system: barnyardgrass (Echinochloa crus-galli, ECHCG); experiment: as above; conditions: rating scale 0-100, 14 days after application
Method in brief: (§1)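 Visual ratings on a 0-100 scale (0 no damage, 100 all plants dead) were taken at 14 days after treatment. Rates of 15-1000 g ai/ha in acetone, 187 l/ha, were sprayed onto soil one day after planting (pre-emerge) or onto 2-3 leaf plants with 0.25% v/v surfactant (post-emerge).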

[3] = test system: green foxtail (Setaria viridis, SETVI); experiment: as above; conditions: rating scale 0-100, 14 days after application
Method in brief: as §1

[4] = test system: ivyleaf morningglory (Ipomoea hederacea, IPOHE); experiment: as above; conditions: rating scale 0-100, 14 days after application
Method in brief: as §1

[5] = test system: johnsongrass (Sorghum halepense, SORHA); experiment: as above; conditions: rating scale 0-100, 14 days after application
Method in brief: as §1

[6] = test system: lambsquarters (Chenopodium album, CHEAL); experiment: as above; conditions: rating scale 0-100, 14 days after application
Method in brief: as §1

[7] = test system: large crabgrass (Digitaria sanguinalis, DIGSA); experiment: as above; conditions: rating scale 0-100, 14 days after application
Method in brief: as §1

[8] = test system: sicklepod (Cassia obtusifolia, CASOB); experiment: as above; conditions: rating scale 0-100, 14 days after application
Method in brief: as §1

[9] = test system: velvetleaf (Abutilon theophrasti, ABUTH); experiment: as above; conditions: rating scale 0-100, 14 days after application
Method in brief: as §1

[10] = test system: field corn (Zea mays L., var. Dekalb 535, CORN); experiment: Pre-emerge test, crop safety; conditions: rating scale 0-100, 14 days after application
Method in brief: (§2)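 Compounds in acetone were track-sprayed at 15-1000 g ai/ha (187 l/ha) on sandy loam pots: pre-emerge one day after seeding, post-emerge at 2-3 leaf stage with 0.25% v/v non-ionic surfactant. Phytotoxicity was rated 14 days later on a 0 (no damage) to 100 (complete death) scale.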

[11] = test system: upland rice (Oryza sp., var. Tebonnet, RICE); experiment: Pre-emerge test, crop safety; conditions: rating scale 0-100, 14 days after application
Method in brief: as §2

[12] = test system: barnyardgrass (Echinochloa crus-galli, ECHCG); experiment: Post-emerge test, greenhouse herbicide activity screening; conditions: rating scale 0-100 (0 no damage, 100 complete death), 14 days after application
Method in brief: (§3)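 Plants grown in 10 cm pots of sandy loam mix received acetone-dissolved compounds through a moving flat-fan nozzle. Doses ranged from 15 to 1000 g ai/ha. Pre-emerge pots were seeded one day earlier, post-emerge pots 8–21 days earlier. Fourteen days on, each pot was graded 0–100 for damage.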

[13] = test system: common ragweed (Ambrosia artemisizfolia L., AMBEL); experiment: as above; conditions: rating scale 0-100 (0 no damage, 100 complete death), 14 days after application
Method in brief: as §3

[14] = test system: green foxtail (Setaria viridis, SETVI); experiment: as above; conditions: rating scale 0-100 (0 no damage, 100 complete death), 14 days after application
Method in brief: as §3

[15] = test system: ivyleaf morningglory (Ipomoea hederacea, IPOHE); experiment: as above; conditions: rating scale 0-100 (0 no damage, 100 complete death), 14 days after application
Method in brief: as §3

[16] = test system: johnsongrass (Sorghum halepense, SORHA); experiment: as above; conditions: rating scale 0-100 (0 no damage, 100 complete death), 14 days after application
Method in brief: as §3

[17] = test system: lambsquarters (Chenopodium album, CHEAL); experiment: as above; conditions: rating scale 0-100 (0 no damage, 100 complete death), 14 days after application
Method in brief: as §3

[18] = test system: large crabgrass (Digitaria sanguinalis, DIGSA); experiment: as above; conditions: rating scale 0-100 (0 no damage, 100 complete death), 14 days after application
Method in brief: as §3

[19] = test system: redroot pigweed (Amaranthus retroflexus, AMARE); experiment: as above; conditions: rating scale 0-100 (0 no damage, 100 complete death), 14 days after application
Method in brief: as §3

[20] = test system: sicklepod (Cassia obtusifolia, CASOB); experiment: as above; conditions: rating scale 0-100 (0 no damage, 100 complete death), 14 days after application
Method in brief: as §3

[21] = test system: velvetleaf (Abutilon theophrasti, ABUTH); experiment: as above; conditions: rating scale 0-100 (0 no damage, 100 complete death), 14 days after application
Method in brief: as §3

[22] = test system: field corn (Zea mays L., var. Dekalb 535, CORN); experiment: Post-emerge test, crop safety; conditions: rating scale 0-100 (0 no damage, 100 complete death), 14 days after application
Method in brief: as §1

[23] = test system: upland rice (Oryza sp., var. Tebonnet, RICE); experiment: Post-emerge test, crop safety; conditions: rating scale 0-100 (0 no damage, 100 complete death), 14 days after application
Method in brief: as §1

COc1c(Cl)cc(F)c(-n2c(=O)cc(C(F)(F)F)n(C)c2=O)c1CC(Cl)C(=O)OCC(F)(F)C(F)(F)C(F)(F)F (single isomer, unassigned) [14-23] was tested, and the “Pre-emerge herbicidal activity, phytotoxicity rating AMARE” value ([1]; 63 g ai/ha) was 95, the “Pre-emerge herbicidal activity, phytotoxicity rating AMARE” value ([1]; 250 g ai/ha) was 100 and the “Pre-emerge herbicidal activity, phytotoxicity rating ECHCG” value ([2]; 63 g ai/ha) was 10. For the same molecule, the “Pre-emerge herbicidal activity, phytotoxicity rating ECHCG” value ([2]; 250 g ai/ha) was 30, the “Pre-emerge herbicidal activity, phytotoxicity rating SETVI” value ([3]; 63 g ai/ha) was 0 and the “Pre-emerge herbicidal activity, phytotoxicity rating SETVI” value ([3]; 250 g ai/ha) was 40. For the same molecule, the “Pre-emerge herbicidal activity, phytotoxicity rating IPOHE” value ([4]; 63 g ai/ha) was 0, the “Pre-emerge herbicidal activity, phytotoxicity rating IPOHE” value ([4]; 250 g ai/ha) was 30 and the “Pre-emerge herbicidal activity, phytotoxicity rating SORHA” value ([5]; 63 g ai/ha) was 0. For the same molecule, the “Pre-emerge herbicidal activity, phytotoxicity rating SORHA” value ([5]; 250 g ai/ha) was 80, the “Pre-emerge herbicidal activity, phytotoxicity rating CHEAL” value ([6]; 63 g ai/ha) was 0 and the “Pre-emerge herbicidal activity, phytotoxicity rating CHEAL” value ([6]; 250 g ai/ha) was 90. The “Pre-emerge herbicidal activity, phytotoxicity rating DIGSA” value ([7]; 63 g ai/ha) was 30, the “Pre-emerge herbicidal activity, phytotoxicity rating DIGSA” value ([7]; 250 g ai/ha) was 90 and the “Pre-emerge herbicidal activity, phytotoxicity rating CASOB” value ([8]; 63 g ai/ha) was 0. The “Pre-emerge herbicidal activity, phytotoxicity rating CASOB” value ([8]; 250 g ai/ha) was 0, the “Pre-emerge herbicidal activity, phytotoxicity rating ABUTH” value ([9]; 63 g ai/ha) was 0 and the “Pre-emerge herbicidal activity, phytotoxicity rating ABUTH” value ([9]; 250 g ai/ha) was 80. The “Pre-emerge phytotoxicity rating, crop damage CORN” value ([10]; 63 g ai/ha) was 0, the “Pre-emerge phytotoxicity rating, crop damage CORN” value ([10]; 250 g ai/ha) was 0 and the “Pre-emerge phytotoxicity rating, crop damage RICE” value ([11]; 63 g ai/ha) was 0. The “Pre-emerge phytotoxicity rating, crop damage RICE” value ([11]; 250 g ai/ha) was 0, the “Post-emerge Herbicidal Activity, phytotoxicity rating ECHCG” value ([12]; Rate 63 g ai/ha) was 100 and the “Post-emerge Herbicidal Activity, phytotoxicity rating ECHCG” value ([12]; Rate 250 g ai/ha) was 100. For the same molecule, the “Post-emerge Herbicidal Activity, phytotoxicity rating AMBEL” value ([13]; Rate 63 g ai/ha) was 50, the “Post-emerge Herbicidal Activity, phytotoxicity rating AMBEL” value ([13]; Rate 250 g ai/ha) was 40 and the “Post-emerge Herbicidal Activity, phytotoxicity rating SETVI” value ([14]; Rate 63 g ai/ha) was 60. For the same molecule, the “Post-emerge Herbicidal Activity, phytotoxicity rating SETVI” value ([14]; Rate 250 g ai/ha) was 70, the “Post-emerge Herbicidal Activity, phytotoxicity rating IPOHE” value ([15]; Rate 63 g ai/ha) was 80 and the “Post-emerge Herbicidal Activity, phytotoxicity rating IPOHE” value ([15]; Rate 250 g ai/ha) was 95. For the same molecule, the “Post-emerge Herbicidal Activity, phytotoxicity rating SORHA” value ([16]; Rate 63 g ai/ha) was 40, the “Post-emerge Herbicidal Activity, phytotoxicity rating SORHA” value ([16]; Rate 250 g ai/ha) was 50 and the “Post-emerge Herbicidal Activity, phytotoxicity rating CHEAL” value ([17]; Rate 63 g ai/ha) was 50. For the same molecule, the “Post-emerge Herbicidal Activity, phytotoxicity rating CHEAL” value ([17]; Rate 250 g ai/ha) was 80, the “Post-emerge Herbicidal Activity, phytotoxicity rating DIGSA” value ([18]; Rate 63 g ai/ha) was 50 and the “Post-emerge Herbicidal Activity, phytotoxicity rating DIGSA” value ([18]; Rate 250 g ai/ha) was 95. The “Post-emerge Herbicidal Activity, phytotoxicity rating AMARE” value ([19]; Rate 63 g ai/ha) was 50, the “Post-emerge Herbicidal Activity, phytotoxicity rating AMARE” value ([19]; Rate 250 g ai/ha) was 100 and the “Post-emerge Herbicidal Activity, phytotoxicity rating CASOB” value ([20]; Rate 63 g ai/ha) was 20. For the same molecule, the “Post-emerge Herbicidal Activity, phytotoxicity rating CASOB” value ([20]; Rate 250 g ai/ha) was 70, the “Post-emerge Herbicidal Activity, phytotoxicity rating ABUTH” value ([21]; Rate 63 g ai/ha) was 50 and the “Post-emerge Herbicidal Activity, phytotoxicity rating ABUTH” value ([21]; Rate 250 g ai/ha) was 90. The “Post-emerge phytotoxicity rating CORN (crop damage)” value ([22]; Rate 63 g ai/ha) was 0, the “Post-emerge phytotoxicity rating CORN (crop damage)” value ([22]; Rate 250 g ai/ha) was 40 and the “Post-emerge phytotoxicity rating RICE (crop damage)” value ([23]; Rate 63 g ai/ha) was 0. For the same molecule, the “Post-emerge phytotoxicity rating RICE (crop damage)” value ([23]; Rate 250 g ai/ha) was 20.
